Measurements reported in ChEMBL document CHEMBL1201862, “PubChem BioAssay data set” (2004).
The source made the active and inactive calls. For most assays here, no stated cut-off is given here; in the data, actives have a measured IC50 and inactives only a lower limit.

Assays:
[1] = biological target: T1, Nucleotide-binding oligomerization domain-containing protein 1 (Homo sapiens, UniProt Q9Y239); assay: NOD1 signaling inhibitors, SAR follow-up, revised (AID 2333); format: functional
T1 sequence (Q9Y239 whole entry): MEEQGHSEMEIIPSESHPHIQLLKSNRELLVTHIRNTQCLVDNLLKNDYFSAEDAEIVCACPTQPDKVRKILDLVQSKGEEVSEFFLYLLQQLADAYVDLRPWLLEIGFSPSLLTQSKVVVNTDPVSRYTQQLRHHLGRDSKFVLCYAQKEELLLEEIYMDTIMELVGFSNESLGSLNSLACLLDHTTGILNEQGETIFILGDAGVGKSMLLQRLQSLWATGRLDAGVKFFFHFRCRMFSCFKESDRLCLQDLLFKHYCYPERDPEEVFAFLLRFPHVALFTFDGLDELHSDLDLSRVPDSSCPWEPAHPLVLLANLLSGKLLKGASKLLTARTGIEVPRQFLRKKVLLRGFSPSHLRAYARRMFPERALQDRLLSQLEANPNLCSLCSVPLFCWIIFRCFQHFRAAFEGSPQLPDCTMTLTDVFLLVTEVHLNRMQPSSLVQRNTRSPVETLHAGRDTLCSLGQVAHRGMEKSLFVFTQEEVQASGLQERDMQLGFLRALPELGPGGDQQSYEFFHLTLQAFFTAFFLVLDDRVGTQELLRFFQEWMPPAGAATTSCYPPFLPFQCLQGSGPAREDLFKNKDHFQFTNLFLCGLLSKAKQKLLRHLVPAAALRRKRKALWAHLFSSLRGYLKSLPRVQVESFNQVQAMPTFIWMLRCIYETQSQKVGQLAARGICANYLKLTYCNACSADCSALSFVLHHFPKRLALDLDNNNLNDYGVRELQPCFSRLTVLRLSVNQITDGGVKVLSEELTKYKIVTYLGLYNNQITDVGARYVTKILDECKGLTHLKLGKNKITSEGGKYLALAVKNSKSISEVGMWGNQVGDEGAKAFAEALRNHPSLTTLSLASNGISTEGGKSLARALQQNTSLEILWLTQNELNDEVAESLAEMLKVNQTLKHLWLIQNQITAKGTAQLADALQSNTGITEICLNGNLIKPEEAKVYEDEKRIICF

[2] = inhibitors of clade B AD8 Env fusion, dose response, cell-based, cherry-pick (AID 652062); format: functional;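 further: luciferase signal from cell-cell fusion driven by HIV-1 clade B AD8 Env; potency is for inhibitors of fusion seen as a drop in luminescence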
[3] = biological target: Nucleotide-binding oligomerization domain-containing protein 2 (Homo sapiens, UniProt Q9HC29); assay: PubChem AID 2334; format: functional
HEK293 = assay: cells; details: Homo sapiens;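 further: cells exposed to compound for 14 hours overnight before viability readout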
Tumor necrosis factor = Tumor necrosis factor (Homo sapiens, UniProt P01375); assay: TNFa-triggered NF-kB activation inhibitors, SAR follow-up, cell-based, revised (AID 2337); format: functional
[4] = biological target: Scavenger receptor class B member 1 (Mus musculus, UniProt Q61009); assay: inhibitors of SR-BI mediated HDL lipid uptake, dose response, ldlA[mSR-BI] cells, fluorescence, cherry pick (AID 493194); format: functional, cell-based;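 further: cellular uptake of fluorescent DiI-labeled HDL measured as cell fluorescence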
Sequence of Scavenger receptor class B member 1 (Q61009 whole entry): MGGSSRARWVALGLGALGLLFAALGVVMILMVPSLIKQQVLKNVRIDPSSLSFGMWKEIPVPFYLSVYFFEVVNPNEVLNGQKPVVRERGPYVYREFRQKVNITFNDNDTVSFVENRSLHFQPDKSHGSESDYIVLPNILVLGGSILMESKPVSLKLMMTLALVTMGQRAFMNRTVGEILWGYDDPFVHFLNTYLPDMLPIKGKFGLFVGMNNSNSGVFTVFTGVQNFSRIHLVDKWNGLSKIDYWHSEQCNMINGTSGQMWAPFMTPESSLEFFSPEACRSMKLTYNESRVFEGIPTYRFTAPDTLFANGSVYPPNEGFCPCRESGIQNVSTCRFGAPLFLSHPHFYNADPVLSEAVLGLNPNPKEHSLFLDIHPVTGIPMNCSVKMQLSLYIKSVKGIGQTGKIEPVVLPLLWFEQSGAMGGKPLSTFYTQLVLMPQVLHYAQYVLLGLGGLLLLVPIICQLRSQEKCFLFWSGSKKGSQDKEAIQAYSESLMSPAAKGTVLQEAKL

Sequence of Nucleotide-binding oligomerization domain-containing protein 2 (Q9HC29 whole entry, the tested form may be a part): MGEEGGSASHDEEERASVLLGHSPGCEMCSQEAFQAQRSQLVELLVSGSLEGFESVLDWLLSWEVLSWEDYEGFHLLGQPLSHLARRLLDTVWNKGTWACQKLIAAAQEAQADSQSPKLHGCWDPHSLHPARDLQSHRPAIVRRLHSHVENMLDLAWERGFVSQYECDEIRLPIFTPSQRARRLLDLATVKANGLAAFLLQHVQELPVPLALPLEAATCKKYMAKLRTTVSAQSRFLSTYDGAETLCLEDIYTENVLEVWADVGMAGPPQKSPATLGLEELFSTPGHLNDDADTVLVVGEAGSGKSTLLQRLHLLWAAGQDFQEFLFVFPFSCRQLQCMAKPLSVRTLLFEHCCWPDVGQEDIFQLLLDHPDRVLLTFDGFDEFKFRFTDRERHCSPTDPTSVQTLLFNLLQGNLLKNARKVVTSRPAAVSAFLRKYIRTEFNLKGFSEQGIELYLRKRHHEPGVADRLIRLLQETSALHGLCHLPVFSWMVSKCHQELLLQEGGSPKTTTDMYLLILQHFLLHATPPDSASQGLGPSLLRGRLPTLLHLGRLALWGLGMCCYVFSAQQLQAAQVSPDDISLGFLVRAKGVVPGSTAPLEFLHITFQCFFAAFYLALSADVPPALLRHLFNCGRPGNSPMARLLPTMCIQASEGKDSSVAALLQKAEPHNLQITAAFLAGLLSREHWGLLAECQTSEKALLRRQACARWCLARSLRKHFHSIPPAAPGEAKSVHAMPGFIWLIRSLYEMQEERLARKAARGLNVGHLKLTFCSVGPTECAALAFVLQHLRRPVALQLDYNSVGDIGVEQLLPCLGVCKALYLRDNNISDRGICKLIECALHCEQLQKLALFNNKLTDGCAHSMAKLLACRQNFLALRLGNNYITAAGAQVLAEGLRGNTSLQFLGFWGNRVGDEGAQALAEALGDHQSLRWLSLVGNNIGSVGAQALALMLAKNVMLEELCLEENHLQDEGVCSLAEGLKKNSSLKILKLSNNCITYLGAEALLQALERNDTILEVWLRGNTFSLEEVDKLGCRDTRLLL
Sequence of Tumor necrosis factor (P01375 whole entry): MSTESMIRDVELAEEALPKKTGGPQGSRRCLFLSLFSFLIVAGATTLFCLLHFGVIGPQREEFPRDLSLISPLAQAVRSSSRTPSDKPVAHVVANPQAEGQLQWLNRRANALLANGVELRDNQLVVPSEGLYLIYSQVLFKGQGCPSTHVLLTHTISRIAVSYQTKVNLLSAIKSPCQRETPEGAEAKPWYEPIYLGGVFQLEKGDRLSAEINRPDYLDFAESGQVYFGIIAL

| AC50 [4] | SMILES | IC50 [1] | AC50 [2] | IC50 [3] | IC50 (HEK293) | IC50 (Tumor necrosis factor) |
| --- | --- | --- | --- | --- | --- | --- |
| – | Cc1ccc(NC(=O)c2ccc(CN3CCc4ccccc4C3)cc2)cc1 | 3.44 µM (active) | 5.75 µM (active) | > 20 µM (inactive) | > 20 µM (inactive) | > 20 µM (inactive) |
| 50.2 µM (active) | COCc1cc(=O)oc2cc(NC(=O)c3ccc(C(C)(C)C)cc3)ccc12 | – | – | – | – | – |
